Consider three molecules from ChEMBL document CHEMBL3232714, “Antiparasitic chaiyaphumines from entomopathogenic Xenorhabdus sp. PB61.4” (J Nat Prod, 2014).

One data set deals with Saccharomyces cerevisiae. Briefly: […] activity against Saccharomyces cerevisiae by agar diffusion assay. Type of data set: functional, organism-based. On the technique in general: In agar diffusion tests the substance spreads into inoculated agar from a disc or well.
Another data set deals with L6. Briefly: Cytotoxicity against rat L6 cells. It counts as cell-based.
The test system of a further data set is Bacillus subtilis. Kind of data set: Antibacterial activity against Bacillus subtilis by agar diffusion assay. Type of data set: functional, organism-based.
The subject of another data set is Micrococcus luteus. Kind of data set: Antibacterial activity against Micrococcus luteus by agar diffusion assay. Type of data set: functional, organism-based.
The next data set deals with Plasmodium falciparum. Briefly: Antiplasmodial activity against erythrocytic stages of Plasmodium falciparum NF54. It counts as functional, organism-based.
Another data set deals with Trypanosoma cruzi. Briefly: Antitrypanosomal activity against trypomastigote forms of Trypanosoma cruzi Tulahuen C4. Type of data set: functional, organism-based.
The subject of data set [1] is Trypanosoma brucei rhodesiense. Kind of data set: Antitrypanosomal activity against bloodstream forms of Trypanosoma brucei rhodesiense STIB900. Type of data set: functional, organism-based.
The next data set deals with Escherichia coli. Kind of data set: Antibacterial activity against Escherichia coli DH10B by agar diffusion assay. It counts as functional. The note with it: K-12 substr. DH10B.
Data set [2] is described as follows: Selectivity index, ratio of IC50 for rat L6 cells to IC50 for erythrocytic stages of Plasmodium falciparum NF54. The note with it: read-out: Ratio IC50. It counts as toxicity, cell-based.

Activity calls are given as the source filed them. The rule behind the calls is not given here.

In the case of `CCC(=O)N[C@@H]1C(=O)N[C@H](Cc2ccccc2)C(=O)N[C@H](C)C(=O)N2CCC[C@H]2C(=O)N[C@@H](Cc2c[nH]c3ccccc23)C(=O)O[C@@H]1C`, the outcome in the data set on Saccharomyces cerevisiae, in the data set with Bacillus subtilis, with Micrococcus luteus and in the data set with Escherichia coli was inactive. Also, the IC50 with L6 is more than 151 µM; with Plasmodium falciparum, 15.4 µM; in the data set with Trypanosoma cruzi, 98.9 µM; in [1], 77.6 µM.
With `C[C@H]1NC(=O)[C@@H](Cc2ccccc2)NC(=O)[C@@H](NC(=O)Cc2ccccc2)[C@@H](C)OC(=O)[C@H](Cc2c[nH]c3ccccc23)NC(=O)[C@@H]2CCCN2C1=O`, the result in the data set on Saccharomyces cerevisiae, with Bacillus subtilis, in the data set with Micrococcus luteus and with Escherichia coli was inactive. The half-maximal inhibitory concentration (IC50) worked out at 92.2 µM with L6, 0.61 µM in the data set with Plasmodium falciparum, 56.4 µM in the data set with Trypanosoma cruzi and 5.11 µM in data set [1]. In addition, in data set [2], the selectivity ratio was more than 151.
Turning to `O=C(Cn1ccnc1[N+](=O)[O-])NCc1ccccc1` [BENZNIDAZOLE], the half-inhibitory concentration (IC50) with Trypanosoma cruzi stood at 1.73 µM.

The IC50 is the point on the concentration scale where inhibition reaches its midpoint. A higher IC50 goes with lower potency.
